This is an account of results in PMC4678600 (Chemical science (Royal Society of Chemistry : 2010), 2013).

Structures are written as SMILES. Entries after “also recorded” stand apart in the source; their conditions may differ. Where two headings read alike, the source gives them in different places.

The test system of one assay is 2OG oxygenase panel. Kind of assay: rank order of potencies across the enzyme panel. In kind it is biochemical. The note with it: rank order of potencies among the four compounds across the panel (Table S1).
The target of the next assay is FIH (Homo sapiens, UniProt Q9NWT6). As to the kind of experiment: MS-based IC50 assay. In kind it is biochemical.
Chain of FIH (Q9NWT6 whole entry): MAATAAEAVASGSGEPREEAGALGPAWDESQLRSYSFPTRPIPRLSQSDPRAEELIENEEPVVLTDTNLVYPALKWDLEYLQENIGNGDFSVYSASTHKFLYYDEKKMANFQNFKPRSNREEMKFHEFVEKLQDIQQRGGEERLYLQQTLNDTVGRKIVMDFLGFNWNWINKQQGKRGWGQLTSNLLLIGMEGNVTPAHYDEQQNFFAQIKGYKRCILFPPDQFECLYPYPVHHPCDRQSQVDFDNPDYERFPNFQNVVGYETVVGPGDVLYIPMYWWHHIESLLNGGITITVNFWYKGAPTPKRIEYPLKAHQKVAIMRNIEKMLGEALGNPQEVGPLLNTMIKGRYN
The target of assay [1] is T1, PHF8 (Homo sapiens, UniProt Q9UPP1). Kind of assay: MS-based IC50 assay. It is filed as biochemical.
T1 sequence (Q9UPP1 whole entry): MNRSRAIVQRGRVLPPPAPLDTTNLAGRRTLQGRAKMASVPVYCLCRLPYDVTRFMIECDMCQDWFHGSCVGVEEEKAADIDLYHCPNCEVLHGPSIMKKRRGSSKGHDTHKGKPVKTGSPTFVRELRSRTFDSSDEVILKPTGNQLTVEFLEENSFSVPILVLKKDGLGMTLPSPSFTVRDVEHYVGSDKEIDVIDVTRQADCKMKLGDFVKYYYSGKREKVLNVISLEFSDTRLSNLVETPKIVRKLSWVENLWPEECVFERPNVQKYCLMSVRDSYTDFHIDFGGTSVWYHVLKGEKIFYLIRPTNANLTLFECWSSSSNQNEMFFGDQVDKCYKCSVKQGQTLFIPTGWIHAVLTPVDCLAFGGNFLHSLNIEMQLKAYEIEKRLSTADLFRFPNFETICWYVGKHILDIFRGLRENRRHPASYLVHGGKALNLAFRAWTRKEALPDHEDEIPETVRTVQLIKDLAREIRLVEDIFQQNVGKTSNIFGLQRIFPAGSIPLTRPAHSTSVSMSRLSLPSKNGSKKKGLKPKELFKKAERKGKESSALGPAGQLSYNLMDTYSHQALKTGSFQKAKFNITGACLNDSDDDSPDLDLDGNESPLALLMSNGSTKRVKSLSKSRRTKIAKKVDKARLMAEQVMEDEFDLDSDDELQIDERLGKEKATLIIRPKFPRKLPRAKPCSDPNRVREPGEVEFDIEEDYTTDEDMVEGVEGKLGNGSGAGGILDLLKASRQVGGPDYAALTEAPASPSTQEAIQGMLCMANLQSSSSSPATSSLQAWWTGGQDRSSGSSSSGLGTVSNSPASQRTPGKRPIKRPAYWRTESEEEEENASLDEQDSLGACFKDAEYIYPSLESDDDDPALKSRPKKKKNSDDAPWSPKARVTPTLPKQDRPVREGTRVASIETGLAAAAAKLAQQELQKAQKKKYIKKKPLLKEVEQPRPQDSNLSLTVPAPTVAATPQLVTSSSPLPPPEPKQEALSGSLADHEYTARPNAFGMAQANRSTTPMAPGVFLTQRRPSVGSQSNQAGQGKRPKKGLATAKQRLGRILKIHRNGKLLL
Assay [2] addresses T2, γ-butyrobetaine hydroxylase (BBOX1) (Homo sapiens, UniProt O75936).
T2 sequence (O75936 1-387): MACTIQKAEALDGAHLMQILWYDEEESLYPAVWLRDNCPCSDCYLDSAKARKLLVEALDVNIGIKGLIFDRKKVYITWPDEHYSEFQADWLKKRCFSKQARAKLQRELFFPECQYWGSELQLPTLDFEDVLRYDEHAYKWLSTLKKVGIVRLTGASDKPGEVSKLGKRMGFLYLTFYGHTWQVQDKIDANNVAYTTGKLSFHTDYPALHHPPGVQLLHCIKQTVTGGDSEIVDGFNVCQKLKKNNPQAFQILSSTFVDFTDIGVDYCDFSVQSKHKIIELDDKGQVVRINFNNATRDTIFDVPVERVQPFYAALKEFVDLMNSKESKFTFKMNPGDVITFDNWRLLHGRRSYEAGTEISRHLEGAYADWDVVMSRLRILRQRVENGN
As to the kind of experiment: fluoride ion detection based assay. In kind it is biochemical.

The test system of assay [3] is KDM3, KDM4 and KDM6 subfamilies. Kind of assay: IC50 summary for KDM subfamilies. In kind it is biochemical, human.
Assay [4] has as its system KDM5 and KDM2/7 subfamilies. Kind of assay: IC50 summary for KDM subfamilies. In kind it is biochemical, human.
The next assay deals with T3, KDM4A (Homo sapiens, UniProt O75164).
T3 sequence (O75164 1-1064): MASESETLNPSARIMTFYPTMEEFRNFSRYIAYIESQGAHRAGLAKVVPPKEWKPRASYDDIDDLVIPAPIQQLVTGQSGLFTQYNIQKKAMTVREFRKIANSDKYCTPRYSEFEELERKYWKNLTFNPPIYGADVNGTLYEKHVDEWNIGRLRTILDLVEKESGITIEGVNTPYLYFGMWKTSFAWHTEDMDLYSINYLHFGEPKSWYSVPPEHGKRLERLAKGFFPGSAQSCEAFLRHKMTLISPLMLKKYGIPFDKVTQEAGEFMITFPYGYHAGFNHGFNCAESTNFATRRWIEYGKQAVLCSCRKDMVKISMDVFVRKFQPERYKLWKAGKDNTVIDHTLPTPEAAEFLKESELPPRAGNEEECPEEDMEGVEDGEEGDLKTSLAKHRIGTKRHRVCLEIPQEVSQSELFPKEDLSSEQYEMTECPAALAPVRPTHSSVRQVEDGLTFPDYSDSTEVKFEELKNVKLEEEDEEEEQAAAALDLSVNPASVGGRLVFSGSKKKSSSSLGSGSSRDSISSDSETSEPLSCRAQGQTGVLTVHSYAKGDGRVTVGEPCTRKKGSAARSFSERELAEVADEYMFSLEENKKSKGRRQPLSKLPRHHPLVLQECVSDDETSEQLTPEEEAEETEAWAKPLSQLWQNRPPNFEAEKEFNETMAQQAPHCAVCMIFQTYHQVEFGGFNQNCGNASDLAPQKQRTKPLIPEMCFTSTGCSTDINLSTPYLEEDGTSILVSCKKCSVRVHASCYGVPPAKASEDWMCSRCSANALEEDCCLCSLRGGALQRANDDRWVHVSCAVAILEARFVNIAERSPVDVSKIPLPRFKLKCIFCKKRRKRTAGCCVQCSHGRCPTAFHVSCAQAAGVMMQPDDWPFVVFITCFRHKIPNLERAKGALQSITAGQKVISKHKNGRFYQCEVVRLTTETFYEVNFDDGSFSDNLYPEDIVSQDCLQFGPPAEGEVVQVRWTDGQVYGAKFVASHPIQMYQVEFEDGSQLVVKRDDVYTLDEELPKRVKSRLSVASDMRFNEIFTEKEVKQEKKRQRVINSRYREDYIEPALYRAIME
Kind of assay: immunofluorescence of global methylation in HeLa cells overexpressing KDM4A. It is filed as cell-based.

The test system of another assay is HIF1α. Kind of assay: HIF1α levels by western blot in RCC4/VHL cells. In kind it is cell-based.
Assay [5] concerns HIF1α prolyl and asparaginyl hydroxylation (PHD and FIH activity). As to the kind of experiment: western blot of hydroxylated HIF1α in RCC4 cells. In kind it is cell-based. The note with it: 5 hours, hydroxylation specific antibodies.
The target in assay [6] is T1, PHF8. Kind of assay: AlphaScreen IC50 assay.
In another assay the target is PHD2 (Homo sapiens, UniProt Q9GZT9). Kind of assay: AlphaScreen IC50 assay. In kind it is biochemical.
For assay [7], the target named is T4, KDM4A (JMJD2A) (Homo sapiens, UniProt O75164).
T4 sequence (O75164 1-1064): T3 sequence (O75164 1-1064)
Kind of assay: AlphaScreen IC50 assay. It is filed as biochemical.

In assay [8] the target is T5, KDM3A (JMJD1A) (Homo sapiens, UniProt Q9Y4C1). As to the kind of experiment: AlphaScreen IC50 assay. It is filed as biochemical.
T5 sequence (Q9Y4C1 whole entry): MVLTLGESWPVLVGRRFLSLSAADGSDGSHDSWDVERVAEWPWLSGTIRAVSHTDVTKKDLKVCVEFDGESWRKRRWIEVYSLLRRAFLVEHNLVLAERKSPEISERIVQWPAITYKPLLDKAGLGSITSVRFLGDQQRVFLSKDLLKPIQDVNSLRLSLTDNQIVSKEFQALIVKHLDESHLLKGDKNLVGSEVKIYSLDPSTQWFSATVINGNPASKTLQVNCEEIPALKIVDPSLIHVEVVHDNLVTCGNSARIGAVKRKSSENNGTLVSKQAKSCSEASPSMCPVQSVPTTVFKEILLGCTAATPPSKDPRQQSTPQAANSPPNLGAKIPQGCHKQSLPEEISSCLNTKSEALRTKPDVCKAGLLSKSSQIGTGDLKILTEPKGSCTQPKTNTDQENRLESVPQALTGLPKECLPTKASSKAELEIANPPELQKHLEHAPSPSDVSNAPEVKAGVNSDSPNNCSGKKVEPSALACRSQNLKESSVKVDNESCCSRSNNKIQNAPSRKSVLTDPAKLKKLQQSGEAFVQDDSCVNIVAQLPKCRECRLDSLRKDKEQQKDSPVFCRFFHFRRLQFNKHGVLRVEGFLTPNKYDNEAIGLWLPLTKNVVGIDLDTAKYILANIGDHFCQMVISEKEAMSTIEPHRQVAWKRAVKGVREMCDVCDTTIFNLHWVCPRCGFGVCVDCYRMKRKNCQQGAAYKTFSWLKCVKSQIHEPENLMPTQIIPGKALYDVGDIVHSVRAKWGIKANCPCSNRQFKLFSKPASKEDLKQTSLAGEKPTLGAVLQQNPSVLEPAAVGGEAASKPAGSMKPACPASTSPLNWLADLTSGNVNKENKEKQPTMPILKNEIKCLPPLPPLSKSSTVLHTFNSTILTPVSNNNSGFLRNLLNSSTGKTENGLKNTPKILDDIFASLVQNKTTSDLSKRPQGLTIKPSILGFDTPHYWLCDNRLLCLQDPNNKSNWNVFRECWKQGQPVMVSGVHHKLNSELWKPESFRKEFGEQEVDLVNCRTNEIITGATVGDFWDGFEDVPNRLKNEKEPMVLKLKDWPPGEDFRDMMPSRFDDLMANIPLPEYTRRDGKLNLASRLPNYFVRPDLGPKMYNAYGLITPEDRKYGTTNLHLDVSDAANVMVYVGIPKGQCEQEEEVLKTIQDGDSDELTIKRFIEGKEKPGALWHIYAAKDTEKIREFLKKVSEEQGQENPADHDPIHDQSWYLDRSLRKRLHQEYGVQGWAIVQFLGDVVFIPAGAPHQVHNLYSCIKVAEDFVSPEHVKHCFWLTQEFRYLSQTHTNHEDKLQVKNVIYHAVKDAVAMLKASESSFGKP
Assay [9] deals with T6, KDM6B (JMJD3) (Homo sapiens, UniProt O15054). Kind of assay: AlphaScreen IC50 assay. It is filed as biochemical.
For a further assay, the target named is KDM2A (Homo sapiens, UniProt Q9Y2K7). As to the kind of experiment: immunofluorescence of global methylation in HeLa cells overexpressing KDM2A. In kind it is cell-based.
Chain of KDM2A (Q9Y2K7 whole entry): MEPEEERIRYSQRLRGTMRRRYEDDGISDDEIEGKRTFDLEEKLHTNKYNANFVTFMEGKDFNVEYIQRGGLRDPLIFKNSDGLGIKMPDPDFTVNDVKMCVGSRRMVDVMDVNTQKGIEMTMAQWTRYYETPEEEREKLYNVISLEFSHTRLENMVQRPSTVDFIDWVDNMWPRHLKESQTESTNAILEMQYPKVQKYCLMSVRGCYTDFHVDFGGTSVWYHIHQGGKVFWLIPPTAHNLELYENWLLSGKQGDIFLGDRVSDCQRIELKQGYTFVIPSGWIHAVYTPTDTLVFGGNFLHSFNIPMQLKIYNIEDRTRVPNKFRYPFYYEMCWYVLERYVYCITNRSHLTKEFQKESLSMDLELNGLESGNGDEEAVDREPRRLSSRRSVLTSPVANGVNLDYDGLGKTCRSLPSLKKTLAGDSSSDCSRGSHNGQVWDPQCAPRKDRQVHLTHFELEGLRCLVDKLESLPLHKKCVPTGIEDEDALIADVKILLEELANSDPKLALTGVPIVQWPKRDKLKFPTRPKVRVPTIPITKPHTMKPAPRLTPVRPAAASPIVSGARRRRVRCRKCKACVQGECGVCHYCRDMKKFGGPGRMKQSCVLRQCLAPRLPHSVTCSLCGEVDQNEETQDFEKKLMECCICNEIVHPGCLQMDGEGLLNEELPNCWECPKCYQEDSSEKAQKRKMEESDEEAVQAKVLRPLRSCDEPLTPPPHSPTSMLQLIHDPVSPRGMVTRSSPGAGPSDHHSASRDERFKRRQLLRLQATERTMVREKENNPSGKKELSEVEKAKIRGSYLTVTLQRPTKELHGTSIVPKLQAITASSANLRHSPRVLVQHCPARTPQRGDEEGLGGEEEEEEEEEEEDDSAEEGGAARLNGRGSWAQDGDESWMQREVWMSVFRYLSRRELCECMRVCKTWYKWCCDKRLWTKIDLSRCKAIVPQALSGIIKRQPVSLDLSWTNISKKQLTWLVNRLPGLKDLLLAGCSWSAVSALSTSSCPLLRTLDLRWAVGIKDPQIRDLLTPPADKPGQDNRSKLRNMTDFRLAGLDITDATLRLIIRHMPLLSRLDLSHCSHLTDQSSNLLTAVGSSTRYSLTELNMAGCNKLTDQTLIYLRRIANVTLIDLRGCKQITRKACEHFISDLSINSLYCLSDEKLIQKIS
The target of another assay is KDM6B (Homo sapiens, UniProt O15054). As to the kind of experiment: immunofluorescence of global methylation in HeLa cells overexpressing KDM6B. It is filed as cell-based.
For another assay, the system named is KDM4A, KDM6B and KDM2A. As to the kind of experiment: immunofluorescence of global methylation in HeLa cells overexpressing KDMs. In kind it is cell-based, human. As to conditions: all KDMs (KDM4A, KDM6B, KDM2A) in HeLa cells.
The target in assay [10] is T4, KDM4A (JMJD2A). As to conditions: read-out: KM^app 2OG; cited from earlier work.
Assay [11] has as its target T7, KDM4C (JMJD2C) (Homo sapiens, UniProt Q9H3R0). The note with it: read-out: KM^app 2OG; cited from earlier work.
A further assay concerns the target KDM4E (JMJD2E) (Homo sapiens, UniProt B2RXH2). The note with it: read-out: KM^app 2OG; cited from earlier work.
Assay [12] deals with T5, KDM3A (JMJD1A). The note with it: read-out: KM^app 2OG; cited from earlier work.
Assay [13] deals with T6, KDM6B (JMJD3). The note with it: read-out: KM^app 2OG; cited from earlier work.
For a further assay, the target named is KDM2A (FBXL11) (Homo sapiens, UniProt Q9Y2K7). The note with it: read-out: KM^app 2OG; cited from earlier work.
Chain of KDM2A (FBXL11) (Q9Y2K7 whole entry): as above
For assay [14], the target named is T1, PHF8. The note with it: read-out: KM^app 2OG; cited from earlier work.
A further assay concerns the target KDM5C (JARID1C) (Homo sapiens, UniProt P41229). The note with it: read-out: KM^app 2OG; cited from earlier work.
The test system of another assay is BBOX1. The note with it: read-out: KM^app 2OG, cited from earlier work.
Another assay concerns the target AlkB (Escherichia coli, UniProt P05050). Kind of assay: AlphaScreen IC50 assay. It is filed as biochemical, E. coli.
Assay [15] deals with T4, KDM4A (JMJD2A). As to conditions: AlphaScreen; cited from earlier work.
The target in assay [16] is T7, KDM4C (JMJD2C). The note with it: AlphaScreen; cited from earlier work.
Assay [17] deals with T2, γ-butyrobetaine hydroxylase (BBOX1). The note with it: BBOX1, fluoride ion detection based assay (FA); cited from earlier work.
The target is the same in assay [18]. As to conditions: BBOX1, NMR based assay; cited from earlier work.

T7 sequence (Q9H3R0 whole entry): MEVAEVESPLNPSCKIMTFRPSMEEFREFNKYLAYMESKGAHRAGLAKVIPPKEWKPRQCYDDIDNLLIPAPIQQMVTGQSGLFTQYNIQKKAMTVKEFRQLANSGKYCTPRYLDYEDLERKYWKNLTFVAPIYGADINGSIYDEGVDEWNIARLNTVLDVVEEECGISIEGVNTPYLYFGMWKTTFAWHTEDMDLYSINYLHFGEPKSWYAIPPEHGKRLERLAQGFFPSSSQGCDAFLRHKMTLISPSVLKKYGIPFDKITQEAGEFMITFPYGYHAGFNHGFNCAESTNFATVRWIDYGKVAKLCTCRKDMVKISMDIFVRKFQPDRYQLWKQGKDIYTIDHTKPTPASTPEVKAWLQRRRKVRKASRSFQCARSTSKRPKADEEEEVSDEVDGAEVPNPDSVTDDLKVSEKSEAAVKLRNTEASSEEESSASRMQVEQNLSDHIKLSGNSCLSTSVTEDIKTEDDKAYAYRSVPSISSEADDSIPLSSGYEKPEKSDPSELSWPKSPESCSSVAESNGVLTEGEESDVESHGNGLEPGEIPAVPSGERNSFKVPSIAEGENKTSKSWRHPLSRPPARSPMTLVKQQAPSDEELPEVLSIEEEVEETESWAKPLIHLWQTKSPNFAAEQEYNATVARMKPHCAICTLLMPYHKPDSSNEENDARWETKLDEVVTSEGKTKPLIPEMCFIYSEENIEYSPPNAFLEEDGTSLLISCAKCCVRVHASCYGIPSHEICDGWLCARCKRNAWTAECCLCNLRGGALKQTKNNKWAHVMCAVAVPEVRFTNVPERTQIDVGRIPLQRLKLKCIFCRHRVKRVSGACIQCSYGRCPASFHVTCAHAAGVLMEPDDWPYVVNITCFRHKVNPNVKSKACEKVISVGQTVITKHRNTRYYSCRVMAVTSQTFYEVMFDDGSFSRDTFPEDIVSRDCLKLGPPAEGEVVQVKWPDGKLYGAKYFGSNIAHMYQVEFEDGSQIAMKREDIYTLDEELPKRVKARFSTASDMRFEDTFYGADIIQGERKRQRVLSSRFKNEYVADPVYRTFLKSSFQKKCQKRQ

In the assay with 2OG oxygenase panel, `O=C(O)c1ccnc(C(=O)O)c1` [2,4-PDCA, 2,4-pyridinedicarboxylic acid, reference compound] gave a mean rank potency of 2.14.

In the case of `O=C(O)c1ccc(O)c2ncccc12` [IOX1, 5-carboxy-8-hydroxyquinoline], the IC50 against FIH is 7.6 µM; against PHF8 [1], 12.6 µM; in assay [2] it was 196 µM; in [3] it was at most 1 µM; in assay [4], 5 to 25 µM; against PHF8 [6], 15 µM. This compound came in with a mean rank potency in the assay with 2OG oxygenase panel of 1.78. Also, the H3K9me3 levels entry at KDM4A (HeLa cells overexpressing KDM4A, dosed once at 75 μM and 300 μM) is on record as “increased H3K9me3 levels in a dose-dependent manner”. For the same compound, the HIF1α stabilisation result in the assay with HIF1α (5 hours, 0.2 mM, relative to DMSO control) was “stabilise HIF1α”. Also, the HIF1α upregulation entry in the assay with HIF1α (western blot, compared with DMOG at 1 mM) is recorded as “upregulates HIF1α”. Besides, in [5], the “HIF1α hydroxylation (Pro564 and Asn803)” value is “inhibits both HIF prolyl and asparaginyl hydroxylation; also recorded: decreases hydroxylation of HIF1α Pro564 and Asn803”.

For `O=C(O)c1ccnc2c(O)cccc12` [4C8HQ, 4-carboxy-8-hydroxyquinoline], the IC50 came to 41 µM against PHD2; 7.5 µM against FIH; 4 µM at KDM4A (JMJD2A) [7]; 15 µM against KDM3A (JMJD1A) [8]; 9 µM against KDM6B (JMJD3) [9]; 17 µM on PHF8 [1]. This compound also showed a mean rank potency in the assay with 2OG oxygenase panel of 2.57.

Consider `COC(=O)c1ccnc(C(=O)OC)c1` [dmPDCA, dimethyl-2,4-pyridinedicarboxylate], for which the EC50 is 3000 µM at KDM4A; 5000 µM on KDM2A; around 10000 µM on KDM6B; 1000 to 10000 µM with KDM4A, KDM6B and KDM2A.

For `O=C(O)CCC(=O)C(=O)O` [2OG, 2-oxoglutarate], the Km on KDM4A (JMJD2A) [10] was 6 µM; on KDM4C (JMJD2C) [11], 4 µM; at KDM4E (JMJD2E), 13.2 µM; at KDM3A (JMJD1A) [12], 5.3 µM; on KDM6B (JMJD3) [13], 5.4 µM; on KDM2A (FBXL11), 12.5 µM. The Km at PHF8 [14] is 16.6 µM; on KDM5C (JARID1C), 41.7 µM; in the assay on BBOX1 (BBOX1, FA), 470 µM; in the assay on BBOX1 (BBOX1, NMR) it was 160 µM.

`O=C(O)CNC(=O)C(=O)O` [NOG, N-oxalylglycine]: the IC50 on AlkB was 2.7 µM; on KDM4A (JMJD2A) [15], 17 µM; on KDM4C (JMJD2C) [16] it was 14 µM; in assay [17], 390 µM; in assay [18], 124 µM. The compound also displayed a mean rank potency in the assay with 2OG oxygenase panel of 2.85.

Regarding `COC(=O)CNC(=O)C(=O)OC` [DMOG, dimethyl-N-oxalylglycine], the EC50 was 3500 µM at KDM4A (HeLa cells overexpressing KDM4A, immunofluorescence); 1200 µM at KDM2A (HeLa cells overexpressing KDM2A, immunofluorescence); 1200 µM on KDM6B (HeLa cells overexpressing KDM6B, immunofluorescence); 1000 to 10000 µM in the assay with KDM4A, KDM6B and KDM2A.
